Assay results published in publication PMC9065877, “Safety, tolerability and pharmacokinetics of the oligomer modulator anle138b with exposure levels sufficient for therapeutic efficacy in a murine Parkinson model: A randomised, double-blind, placebo-controlled phase 1a trial” (EBioMedicine, 2022).
Where two headings read alike, the source gives them in different places.

What was measured:
[1] = Multiple ascending dose (MAD, QD 7 days) oral pharmacokinetics of anle138b in healthy subjects, plasma; type: in vivo, human
Experimental: This was a single-centre, double-blind, randomised, placebo-controlled single ascending dose (SAD) and multiple ascending dose (MAD) study of anle138b in doses of up to 300 mg per day in healthy subjects. In addition, the effect of food (FES) on the PK of anle138b in healthy subjects was examined using single doses of 150 mg. Participants were recruited from Quotient Sciences (Nottingham, UK) volunteer database.
(§1) As a safety precaution, sentinel dosing was performed for all SAD and MAD cohorts. In SAD, subjects received a single dose of anle138b or placebo after fasting from all food and drink (except water) for a minimum of 8 h prior to dosing. The dosing in the four SAD-cohorts were 50 mg, 100 mg, 200 mg and 300 mg of free anle138b equivalent, respectively. In the MAD part, participants received anle138b or placebo once daily (QD) for 7 days after fasting from all food and drink (except water) for a minimum of 8 h prior to dosing. The dosing in the three MAD-cohorts was 100 mg, 200 mg and 300 mg of free anle138b equivalent, respectively. Post dosing mouth and hand checks were conducted to ensure the capsules were swallowed. In-study decisions regarding continuation and dose escalation were made by the safety advisory committee (SAC) comprising the principal investigator, the sponsor's medical monitor and a PK expert. For dose escalation to proceed, data needed to be available from a minimum of 6 subjects per cohort with completed per protocol safety and PK assessments up to 48 h after dosing to ensure at least 4 subjects had received active IMP. The decision to proceed to the next higher dose level was based on safety, tolerability and available PK data to 48 h post-dose. The following data were required: Adverse events, vital signs, safety laboratory, ECG, physical examinations, plasma concentrations of anle138b with interim PK parameter estimations (Tmax, Cmax, AUC(0-24), AUC(0-tau), AUC(0-last) and T½, where applicable). Data were provided to the SAC in accordance with Quotient Sciences’ standard operating procedure (SOP) on interim dose decision-making and dose escalation.
Secondary outcome measures were the oral PK of single (SAD) and multiple (MAD) ascending doses of anle138b in the fasted state as well as the effect of co-administration with food on the PK of anle138b. To this end PK blood samples were taken at day 1 (and for MAD day 7) pre-dose and at 0·5, 1, 1·5, 2, 3, 4, 6, 8, 10, 12, 16 and 20 h post-dose, at days 2 to 6 pre-dose only (MAD) and 24, 30, 36 and 48 h post final dose. Analysis of anle138b in plasma was done at Aptuit, an Evotec company, in Verona, Italy. Time point of last quantifiable data was seen to increase with an increase in dose as follows: SAD: from the 50mg dose (subjects ranged between 8-24h) to the 300mg dose (subjects ranged between 36-48h). MAD: from the 100mg dose (subjects ranged between 8-36h) to the 300mg dose (subjects ranged between 20-48h). In FES, subjects ranged between 24-48h.
The study was exploratory and no formal sample size calculation was made. Based on experience from previous studies of similar design, eight subjects per cohort were enrolled for parts 1 (SAD) and 2 (MAD) and a total of twelve subjects for part 3 (FES). Populations and analysis sets were determined for safety and PK data after database lock using the criteria defined in the reporting and analysis plan. The safety population and safety analysis set for SAD and MAD were defined after database lock but prior to study unblinding. Statistical analysis and production of summary tables, figures and listings for all safety data (AEs, vital signs, ECGs and safety laboratory assessments) including changes from baseline as required in this study were performed using the statistical package SAS (v9·4). Additional statistics was provided for PK-related data including coefficient of variation (CV%), geometric mean, geometric CV%, and the number n of subjects that were included in the natural logarithmic transformation). […]

[2] = 28-day cynomolgus monkey toxicity study; conditions: in vivo; for Cmax: 125 mg/kg/day, read-out: Cmax at NOAEL
Text: This trial followed the recommendations of the EMA (European Medicines Agency) (EMEA/CHMP/SWP/28367/07 Rev. 1; 20 July 2017) and the FDA (Food and Drug Administration) (Guidance for Industry: Estimating the Maximum Safe Starting Dose in Initial Clinical Trials for Therapeutics in Adult Healthy Volunteers. U.S. Department of Health and Human Services Food and Drug Administration Center for Drug Evaluation and Research (CDER) July 2005) for dose finding in a first-in-human study. The safe starting dose was set based on toxicity studies in animals. In a 28-day toxicity study in rats, the no-observed-adverse-effect-level (NOAEL) was determined to be 50 mg/kg/day (human equivalent dose of 8·1 mg/kg using the FDA factor of 6·2 according to the FDA Guidance for Industry “Estimating the Maximum Safe Starting Dose in Initial Clinical Trials for Therapeutics in Adult Healthy Volunteers”). Cmaxǀexposure at 50 mg in males were 2460ǀ25600 and in females 2680ǀ21700 ng/mL ǀ ng*h/mL. In a 28-day cynomolgus monkey toxicity study, the NOAEL was 125 mg/kg/day (human equivalent dose of 40·3 mg/kg). Cmaxǀexposure at 125 mg/kg/day were 3170ǀ15700 (males) and 2720ǀ9720 (females) ng/mL ǀ ng*h/mL. Based upon these NOAELs a safe starting dose derived from the more sensitive species (rat) was calculated using a safety factor of 10 (i.e., 0·8 mg/kg), which corresponds to a dose of approximately 50 mg assuming a body weight of 60 kg. […] Escalation between doses was planned to be flexible depending on emerging results but not to exceed an increment of 2-fold.

[3] = Oral pharmacokinetics, overall statements across SAD, MAD and FES parts; type: in vivo, human
Experimental: as §1, with “escalation. […]” for “escalation.”
Secondary outcome measures were the oral PK of single (SAD) and multiple (MAD) ascending doses of anle138b in the fasted state as well as the effect of co-administration with food on the PK of anle138b. […] Time point of last quantifiable data was seen to increase with an increase in dose as follows: SAD: from the 50mg dose (subjects ranged between 8-24h) to the 300mg dose (subjects ranged between 36-48h). […]

With `Brc1cccc(-c2cc(-c3ccc4c(c3)OCO4)n[nH]2)c1` [anle138b, 3-(1,3-benzodioxol-5-yl)-5-(3-bromophenyl)-1H-pyrazole] the “Time point of last quantifiable data (range of subjects)” value ([1]; MAD 100mg dose) was 8 to 36 h, the “Time point of last quantifiable data (range of subjects)” value ([1]; MAD 300mg dose) was 20 to 48 h and the “Effect of multiple dosing on Tmax” value ([1]; MAD day 7 vs day 1) was “unaffected by multiple dosing”. For the same compound, the “Exposure relative to the level required for full efficacy in PD mouse model (≥300 ng*h/ml)” value ([1]; highest dose tested (300 mg), multiple dosing) was “more than twice this exposure”, the Cmax ([1]; human, plasma, oral, 100 mg, MAD Cohort A 100 mg QD, dosing day 1, fasted, geometric mean (CV%)) was 135 ng/mL and the AUC(0-t) ([1]; human, plasma, oral, 100 mg, MAD Cohort A 100 mg QD, dosing day 1, fasted, geometric mean (CV%), read-out: AUC(0-24)) was 261 ng·h/mL. It also gave an AUC(0-t) ([1]; human, plasma, oral, 100 mg, MAD Cohort A 100 mg QD, dosing day 7, fasted, geometric mean (CV%), read-out: AUC(0-24)) of 141 ng·h/mL, a Cmax ([1]; human, plasma, oral, 200 mg, MAD Cohort B 200 mg QD, dosing day 1, fasted, geometric mean (CV%)) of 447 ng/mL and an AUC(0-t) ([1]; human, plasma, oral, 200 mg, MAD Cohort B 200 mg QD, dosing day 1, fasted, geometric mean (CV%), read-out: AUC(0-24)) of 905 ng·h/mL. The Cmax ([1]; human, plasma, oral, 200 mg, MAD Cohort B 200 mg QD, dosing day 7, fasted, geometric mean (CV%)) was 128 ng/mL, the AUC(0-t) ([1]; human, plasma, oral, 200 mg, MAD Cohort B 200 mg QD, dosing day 7, fasted, geometric mean (CV%), read-out: AUC(0-24)) was 308 ng·h/mL and the AUC(0-t) ([1]; human, plasma, oral, 200 mg, multiple dosing at a daily dose of 200 mg, read-out: Exposure level (AUC0-24)) was no less than 300 ng·h/mL. The Cmax ([1]; human, plasma, oral, 300 mg, MAD Cohort C 300 mg QD, dosing day 1, fasted, geometric mean (CV%)) was 910 ng/mL, the AUC(0-t) ([1]; human, plasma, oral, 300 mg, MAD Cohort C 300 mg QD, dosing day 1, fasted, geometric mean (CV%), read-out: AUC(0-24)) was 2210 ng·h/mL and the Cmax ([1]; human, plasma, oral, 300 mg, MAD Cohort C 300 mg QD, dosing day 7, fasted, geometric mean (CV%)) was 307 ng/mL. For the same compound, the AUC(0-t) ([1]; human, plasma, oral, 300 mg, MAD Cohort C 300 mg QD, dosing day 7, fasted, geometric mean (CV%), read-out: AUC(0-24)) was 633 ng·h/mL, the half-life ([1]; human, plasma, oral, MAD Cohort B 200 mg QD, dosing day 7, fasted, geometric mean (CV%), N=5) was roughly 10 h and the “Day by which steady state exposure appeared to be reached” value ([1]; trough (pre-dose) levels, repeated daily dosing) was no more than 5 days. For the same compound, the Cmax ([2]; female, females) was 2720 ng/mL, the NOAEL at 28 days ([2]; 28-day toxicity study) was 125 mg/kg/day and the Cmax ([2]; male, males) was 3170 ng/mL. For the same compound, the half-life ([3]; human, plasma, oral, authors' conclusion from SAD data, read-out: true T½ of anle138b in human plasma) was no less than 10 h, the practical elimination half-time ([3]; overall PK data) was roughly 12 h and the “Bioavailability (in words)” value ([3]; overall PK data, fasted and fed conditions) was “good bioavailability”.
